What was measured:
mouse hepatocytes = test: Hepatocyte intrinsic clearance and metabolite profile; format: in vitro ADME; details: fexinidazole 10 µM
Method: Fexinidazole was incubated with cryopreserved hepatocytes from male CD-1 mice, male Sprague Dawley rats, male beagle dogs, male cynomolgus monkeys, and from pooled white or African-American human donor samples (purchased commercially), at concentrations of 1 µM and 10 µM. […] The incubated samples were analyzed by LC-MS after extraction into acetonitrile.
A quality control analysis of fexinidazole was performed via 1H-NMR in DMSO and LC- […]
provided by the Swiss Tropical Institute (Basel, Switzerland).
Reagents and solvents were of analytical grade and obtained from Sigma-Aldrich (St. Louis, […]
Cryopreserved hepatocytes from the male CD1 mouse, lot CSI; male Sprague Dawley rat, lot LPL; male beagle dog, lot BWX; male cynomolgus monkey, lot EHH; and pooled human samples, lot MJI, were purchased from In Vitro Technologies Inc (Baltimore, Maryland, […]
5.4. In vitro Incubations
On the day of the experiment a 10 mM stock solution of fexinidazole in DMSO was prepared and, within 3 hours, aliquots of this freshly prepared solution, after suitable dilution, were added to the incubation matrix, to reach fexinidazole final concentrations of 1 and 10 µM. The final percentage of DMSO was 0.01% in the incubation samples for the […]
On the day of experiment, the cryopreserved hepatocytes were thawed following the detailed instructions provided by the supplier.
The number of viable cells was determined using a Trypan Blue exclusion method.
5.4.1. Intrinsic Clearance Study […]
µM with mouse, rat, dog, monkey and human hepatocytes (300000 cells/mL for the mouse and 1 million cells/mL for the other species) in a final incubation volume of 0.75 mL […]
Incubations were performed in duplicate in a 48-well plate under shaking. Sampling was performed using an automatic liquid handling system (Multiprobe II EX, Packard). At 0, 1, 5, 10, 15, 20, 30, 60 and 120 minutes, 50 µL aliquots of the incubates were taken, then 80 µL of ice-cold acetonitrile and 20 µL of 1 µM warfarin in acetonitrile (internal standard) were added, and samples centrifuged at 2000 rpm for 20 min. The supernatant was analyzed by LC-MS/MS. […]
the medium alone at t = 0 and 120 minutes.
For the determination of phase I and phase II activity of hepatocytes, 7-ethoxycoumarin (7-EC) 1 µM, and 7-hydroxycoumarin (7-HC) 30 µM were used as positive controls and incubated under the same conditions as fexinidazole. Aliquots of incubates were taken at 0, 10, 20, 30, 60 and 120 minutes and processed as fexinidazole samples.
5.4.2. Metabolite Profile Study
For metabolite profiling, fexinidazole was incubated at a concentration of 10 µM with mouse, rat, dog, monkey and human hepatocytes (300000 cells/mL for the mouse and 1 million cells/mL for the other species) in a final incubation volume of 2 mL Leibovitz L-15 […]
Aliquots of the incubation samples were taken at t = 0, 30 and 120 minutes; the metabolism was stopped by the addition of an equal volume of cold acetonitrile and the samples centrifuged at 1500 rpm for 20 min. The supernatant was stored at -20°C until analysis. Control incubations were performed with the compound in the medium alone […]
5.5. Analysis of Samples for Intrinsic Clearance Determination
The analysis of the samples for intrinsic clearance determination was performed by an LC-MS/MS method, using the following conditions:
HPLC Equipment and Conditions
HPLC system Agilent 1100 binary pump (Agilent, Palo Alto, USA)
Autosampler CTC Pal (Alfatech, San Jose, USA)
Analytical column Guard Column SB-C8 4.6 x 12.5 mm, 5 µm (Zorbax)
Column temperature ambient
Mobile phase A 10 mM ammonium formate pH 4.0: acetonitrile (95:5, v:v)
Mobile phase B 10 mM ammonium formate pH 4.0: acetonitrile (5:95, v:v) […]
Gradient conditions Step Total time (min) flow (µL/min) %A % B […]
MS Equipment and Conditions
Mass spectrometer API 4000 Triple Quadrupole (MDS-Sciex, Toronto, […]
Source Turbo Ion Spray (TIS)
Ion mode Positive for fexinidazole and 7-EC.
Negative for 7-HC, 7-HC sulphate and 7-HC glucuronide.

[1] = Half-life after oral treatment across species; format: in vivo; details: mouse, rat, dog, plasma, mice, rats and dogs

SMILES	% of total drug related material (mouse hepatocytes; 30 min)	% of total drug related material (mouse hepatocytes; 120 min)	half-life [1]	% of total drug related material (mouse hepatocytes; t=0)
Cn1c([N+](=O)[O-])cnc1COc1ccc(S(C)(=O)=O)cc1 [Fexinidazole sulfone]	8%	20%	≤ 24 h	–
Cn1c([N+](=O)[O-])cnc1COc1ccc([S+](C)[O-])cc1 (stereo not drawn) [Fexinidazole sulfoxide]	92%	80%	2 to 7 h	58%
CSc1ccc(OCc2ncc([N+](=O)[O-])n2C)cc1 [Fexinidazole, 1-methyl-2-((p-(methylthio)phenoxy)methyl)-5-nitroimidazole]	–	–	1 to 3 h	42%

Reference: publication PMC3006138, “Fexinidazole – A New Oral Nitroimidazole Drug Candidate Entering Clinical Development for the Treatment of Sleeping Sickness” (PLoS Neglected Tropical Diseases, 2010)
